# Where “and” joins values, the source holds several entries; their conditions need not be identical. Equal values may be shown once.
# Tests used:
# [1] = Pharmacokinetic study for PTG-630 (IV and PO): plasma, whole blood, tissues, urine; type: in vivo, Sprague Dawley rats; conditions: for PTG-4997 (metabolite) concentration: Table 2, for PTG-4997 (metabolite) after PTG-630 PO 100 mg/kg
# Procedure: The samples were analyzed in two batches with standards and QCs prepared on rat plasma and rat urine. Analyst® 1.6 (SCIEX) software was used for statistical analysis of bioanalytical data. […] Dose samples collected at 0.083 h-6 h postdose were diluted 4 times with SD rat plasma prior to plating. Twenty-four (24) hours plasma samples were assayed without dilution. […] Two sciatic nerve samples were excluded from analysis, due to the insufficient sample size. […] The 12 non-cannulated animals were arbitrarily assigned to groups upon arrival and housed together throughout the experiment. The animals were acclimated to their designated housing for at least 24 hours before the first day of dosing. […] Blood samples were collected via cannula from IV dosed rats or by cardiac stick from PO dosed rats at the specified time points for sampling pharmacokinetics. Blood was collected into K2EDTA tubes. Tubes were mixed gently after blood collection, chilled and centrifuged at 3000 rpm, 4° C. within 30 minutes upon collection. The samples were centrifuged at 4° C. and the resultant plasma separated. […] Urine from Group 1 was collected via polycarbonate tubes from rats placed in drug metabolism cages. Urine was maintained and room temperature through the collection period.
# CYP3A = type: in vitro ADME, human; conditions: HLM
# Excerpt: Compound 5 (PTG-630 free base) and 7 additional compounds for CYP3A P450 inhibition.
# Imidazole (and benzimidazole) containing drugs are ubiquitous in pharmacological practice; however, drug-drug interactions (DDI) have been observed with some imidazole-containing classes, such as the antifungal azoles typified by ketoconazole. It is believed that the imidazole moiety accounts for their ability to inhibit CYP3A, the major DDI enzyme that metabolizes up to 50% of common drugs. The compounds of the disclosure incorporate an imidazole moiety attached to a pyridine ring via the imidazole C-2. They all share an imidazo-hydroxypyridine theme that can bind redox metal ions, while differing in the nature of the X side-chain. The potential of the compounds of the disclosure for DDI was evaluated by screening their inhibition of CYP3A.
# Two studies were conducted in human liver microsomes (HLM). Lead candidate PTG-630 was tested using the Eurofins G232 panel (Drug Metab Dispos. 2001 January; 29(1):23-9), where inhibition was measured against seven CYP enzymes; CYP3A4 was tested using two different substrates, midazolam and testosterone. In a second study, inhibition of CYP3A4 (midazolam substrate only) was compared for 8 compounds of interest. The test protocol involved one-point measurements in duplicate, where inhibition was measured at a fixed 10 μM concentration of candidate inhibitors. In all cases, the substrate for each CYP enzyme was at a concentration equal to its specific Km value that was independently obtained from an 8-point dose-response study. Based on the observed value for percent inhibition for each test compound, we calculated of an IC50 assuming a competitive mode of inhibition. If percent inhibition for an inhibitor at a concentration of [I] is denoted by P, then: IC50=[I]*(100−P)/P In the single-point assay, [I] is 10 μM. If measured inhibition is 10%, then IC50=10*(100-10)/10=90 μM. […] As discussed in Lin et al. (J Pharm Sci. 2007 September; 96(9):2485-93; doi: 10.1002/jps.20884), CYP inhibition is broadly interpreted as being “potent” if IC50<1 μM, “moderate” if 1 μM<IC50<10 μM, and “weak” if IC50>10 μM.
structure (smiles),measurement,setting,value
Cc1ncc(CO)c(-c2ncc[nH]2)c1O [PTG-4997],PTG-4997 (metabolite) concentration,"[1]; muscle, 2 h postdose, Mean",<BLQ
same,PTG-4997 (metabolite) concentration,"[1]; muscle, 2 h postdose, individual animals",<BLQ
same,PTG-4997 (metabolite) concentration,"[1]; muscle, 4 h postdose, Mean",54 ng/mL
same,PTG-4997 (metabolite) concentration,"[1]; muscle, 4 h postdose, individual animals, 100 mg/kg",108 ng/mL and <BLQ
same,PTG-4997 (metabolite) concentration,"[1]; muscle, 6 h postdose, Mean",127.5 ng/mL
same,PTG-4997 (metabolite) concentration,"[1]; muscle, 6 h postdose, individual animals, 100 mg/kg",108 ng/mL and 147 ng/mL
same,PTG-4997 (metabolite) concentration,"[1]; muscle, 24 h postdose, Mean",<BLQ
same,PTG-4997 (metabolite) concentration,"[1]; muscle, 24 h postdose, individual animals",<BLQ
same,PTG-4997 (metabolite) concentration,"[1]; plasma, 0.5 h postdose, Mean",<BLQ
same,PTG-4997 (metabolite) concentration,"[1]; plasma, 0.5 h postdose, individual animals",<BLQ
same,PTG-4997 (metabolite) concentration,"[1]; plasma, 1 h postdose, Mean",<BLQ
same,PTG-4997 (metabolite) concentration,"[1]; plasma, 1 h postdose, individual animals",<BLQ
same,PTG-4997 (metabolite) concentration,"[1]; plasma, 2 h postdose, Mean",<BLQ
same,PTG-4997 (metabolite) concentration,"[1]; plasma, 2 h postdose, individual animals",<BLQ
same,PTG-4997 (metabolite) concentration,"[1]; plasma, 4 h postdose, Mean",<BLQ
same,PTG-4997 (metabolite) concentration,"[1]; plasma, 4 h postdose, individual animals",<BLQ
same,PTG-4997 (metabolite) concentration,"[1]; plasma, 6 h postdose, Mean",<BLQ
same,PTG-4997 (metabolite) concentration,"[1]; plasma, 6 h postdose, individual animals",<BLQ
same,PTG-4997 (metabolite) concentration,"[1]; plasma, 24 h postdose, Mean",<BLQ
same,PTG-4997 (metabolite) concentration,"[1]; plasma, 24 h postdose, individual animals",<BLQ
same,PTG-4997 (metabolite) concentration,"[1]; sciatic nerve, 0.5 h postdose, Mean",<BLQ
same,PTG-4997 (metabolite) concentration,"[1]; sciatic nerve, 0.5 h postdose, individual animals",<BLQ
same,PTG-4997 (metabolite) concentration,"[1]; sciatic nerve, 1 h postdose, Mean",<BLQ
same,PTG-4997 (metabolite) concentration,"[1]; sciatic nerve, 1 h postdose, individual animals",<BLQ
same,PTG-4997 (metabolite) concentration,"[1]; sciatic nerve, 2 h postdose, Mean",<BLQ
same,PTG-4997 (metabolite) concentration,"[1]; sciatic nerve, 2 h postdose, individual animals",<BLQ
same,PTG-4997 (metabolite) concentration,"[1]; sciatic nerve, 4 h postdose, Mean",<BLQ
same,PTG-4997 (metabolite) concentration,"[1]; sciatic nerve, 4 h postdose, individual animals",<BLQ
same,PTG-4997 (metabolite) concentration,"[1]; sciatic nerve, 6 h postdose, Mean",<BLQ
same,PTG-4997 (metabolite) concentration,"[1]; sciatic nerve, 6 h postdose, individual animals",<BLQ
same,PTG-4997 (metabolite) concentration,"[1]; sciatic nerve, 24 h postdose, Mean",<BLQ
same,PTG-4997 (metabolite) concentration,"[1]; sciatic nerve, 24 h postdose, individual animals",<BLQ
same,"AUC last in kidney, times lower than PTG-630 in kidneys",[1]; after PTG-630 PO,3 times
same,detection in plasma following IV dosing,[1]; metabolite PTG-4997 after PTG-630 IV,only detected in the plasma of single animal
same,presence in kidney,[1]; metabolite PTG-4997 after PTG-630 PO,present in steady level for 24 hours
same,presence in muscle samples,"[1]; metabolite PTG-4997 after PTG-630 PO, 4-6 hours postdose",intermittently present
same,detection in plasma following PO administration,"[1]; metabolite PTG-4997 after PTG-630 PO, any timepoint",not detectable
same,presence in liver samples,"[1]; metabolite PTG-4997 after PTG-630 PO, any timepoint through 24 hours postdose",undetectable
same,average amount recovered from each animal,"[1]; urine, 24 hours, after PTG-630 IV",146 ng
same,"excretion rate, times lower than PTG-630","[1]; urine, after PTG-630 IV",34 times
same,Estimated IC50,"CYP3A; midazolam, from one-point % inhibition at 10 μM, IC50=[I]*(100−P)/P",— None
same,P % inhib,"CYP3A; substrate midazolam at Km, Inhib Conc. 1.0E−05 M",−4.9%

# — patent publication US12139472B2, “Inhibitors of advanced glycation end products” (priority 2019, dated 2024)
